Assay results: patent US10639382B2, “Method for treating leukemia” (National Guard Health Affairs, priority 2017, dated 2020)
Structures can show the parent of a compound that is named as a salt. Where two headings read alike, the source gives them in different places. Starred links: 1 amine or outer side, 2 acyl side, 3 side chain; linkers in the order of their positions; H or OH if unused. Positions of bridges follow the written chain, without caps; N, C: chain ends. Non-standard residues stand in square brackets, D forms with d. Residues, ends and D or L forms follow the SMILES beside them. Chains are numbered I, II in the order given. Actinocin(9to1) = Cc1c2oc3c(C)ccc(C(=O)[*:1])c3nc-2c(C(=O)[*:2])c(N)c1=O; NMeV = CN[C@H](C(=O)O)C(C)C; Sar = CNCC(=O)O

What was measured:
Type in all cases: cell-based, human
PBMCs from CML patients = assay: Primary screening of FDA approved drug library, TitreGlo/CellTiter-Glo cell viability, PBMCs from CML patients; conditions: for inhibition at 10 µM: Homo sapiens, PBMC, read-out: % Inhibition, CML Average
PBMCs from ALL patients = assay: Primary screening of FDA approved drug library, TitreGlo/CellTiter-Glo cell viability, PBMCs from ALL patients; conditions: for inhibition at 10 µM: Homo sapiens, PBMC, read-out: % Inhibition, ALL Average
PBMCs from AML patients = assay: Primary screening of FDA approved drug library, TitreGlo/CellTiter-Glo cell viability, PBMCs from AML patients; conditions: for inhibition at 10 µM: Homo sapiens, PBMC, read-out: % Inhibition, AML Average
PBMCs from CLL patients = assay: Primary screening of FDA approved drug library, TitreGlo/CellTiter-Glo cell viability, PBMCs from CLL patients; conditions: for inhibition at 10 µM: Homo sapiens, PBMC, read-out: % Inhibition, CLL Average
[1] = compound 10 uM, PBMCs from CML patients, average over patients, relative to high control (0%) and no-cell low control (100%)
[2] = compound 10 uM, PBMCs from ALL patients, average over patients, relative to high control (0%) and no-cell low control (100%)
[3] = compound 10 uM, PBMCs from AML patients, average over patients, relative to high control (0%) and no-cell low control (100%)
[4] = compound 10 uM, PBMCs from CLL patients, average over patients, relative to high control (0%) and no-cell low control (100%)

Row | SMILES | inhibition at 10 µM (PBMCs from CML patients; [1]) [%] | inhibition at 10 µM (PBMCs from ALL patients; [2]) [%] | inhibition at 10 µM (PBMCs from AML patients; [3]) [%] | inhibition at 10 µM (PBMCs from CLL patients; [4]) [%] | other results
1 | Nc1nc(Cl)nc2c1ncn2[C@@H]1O[C@H](CO)[C@@H](O)[C@@H]1F [Clofarabine] | 21.9 | 68.1 | -20.6 | 41.3 | 
2 | CC(=O)OC[C@H]1O[C@@H]([S-])[C@H](OC(C)=O)[C@@H](OC(C)=O)[C@@H]1OC(C)=O.CCP(CC)CC.[Au+] [Auranofin] |  |  |  |  | % Inhibition, CML Average (PBMCs from CML patients; [1]): 94.9%; % Inhibition, ALL Average (PBMCs from ALL patients; [2]): 102.9%; % Inhibition, AML Average (PBMCs from AML patients; [3]): 96.7%; % Inhibition, CLL Average (PBMCs from CLL patients; [4]): 96.0%
3 | CC(=O)[C@]1(O)Cc2c(O)c3c(c(O)c2[C@@H](O[C@H]2C[C@H](N)[C@H](O)[C@H](C)O2)C1)C(=O)c1ccccc1C3=O [Idarubicin HCl] | 43.5 | 73.5 | 79 | 54.8 | 
4 | COc1cccc2c1C(=O)c1c(O)c3c(c(O)c1C2=O)C[C@@](O)(C(C)=O)C[C@@H]3O[C@H]1C[C@H](N)[C@H](O)[C@H](C)O1 [Daunorubicin HCl] | 67.6 | 78.4 | 64 | 65.5 | 
5 | COc1cccc2c1C(=O)c1c(O)c3c(c(O)c1C2=O)C[C@@](O)(C(=O)CO)C[C@@H]3O[C@H]1C[C@H](N)[C@@H](O)[C@H](C)O1 [Epirubicin HCl] | 5 | 74.4 | 67.1 | 64.3 | 
6 | CC(C)(C)C(=O)OCOP(=O)(COCCn1cnc2c(N)ncnc21)OCOC(=O)C(C)(C)C [Adcfovir Dipivoxil] | 63.7 | 96 | 72.8 | 43.9 | 
7 | CO[C@H]1C[C@@H]2CC[C@@H](C)[C@@](O)(O2)C(=O)C(=O)N2CCCC[C@H]2C(=O)O[C@H]([C@H](C)C[C@@H]2CC[C@@H](OC(=O)C(C)(CO)CO)[C@H](OC)C2)CC(=O)[C@H](C)/C=C(\C)[C@@H](O)[C@@H](OC)C(=O)[C@H](C)C[C@H](C)/C=C/C=C/C=C/1C [Temsirolimus] | 7 | -6.4 | 1.6 | 26.6 | 
8 | Clc1ccc(CCC(Cn2ccnc2)Sc2c(Cl)cccc2Cl)cc1 (centres unmarked) [Butoconazole Nitrate] | 58.5 | 40.7 | 46.6 | 44.1 | 
9 | CN(C)CCCN1c2ccccc2CCc2ccccc21 [Imipramine HCl] | 13.7 | -6 | 1.9 |  | 
10 | Nc1nc(F)nc2c1ncn2[C@@H]1O[C@H](COP(=O)(O)O)[C@@H](O)[C@@H]1O [Fludarabine Phosphate] | 19.1 | 53.9 | 21.8 | 17.3 | 
11 | CO[C@H]1/C=C/O[C@@]2(C)Oc3c(C)c(O)c4c(O)c(c5c(nc6cc(C)ccn65)c4c3C2=O)NC(=O)/C(C)=C\C=C\[C@H](C)[C@H](O)[C@@H](C)[C@@H](O)[C@@H](C)[C@H](OC(C)=O)[C@@H]1C [Rifaximin] | 42.3 | -45.4 | -42.8 | -60.2 | 
12 | COC(=O)C1=C(C)NC(C)=C(C(=O)OC)C1c1ccccc1[N+](=O)[O-] [Nifedipine] | 4.2 | 74.3 | 7.9 | -10.8 | 
13 | CN1CCc2cccc3c2[C@H]1Cc1ccc(O)c(O)c1-3 [Apomorphine HCl Hemihydrate] | 89.4 | 37.3 | 39.5 | 27.9 | 
14 | CS(=O)(=O)CCNCc1ccc(-c2ccc3ncnc(Nc4ccc(OCc5cccc(F)c5)c(Cl)c4)c3c2)o1 [Lapatinib Ditosylate] | 76.6 | 35.1 | -76.1 | 6.9 | 
15 | Cc1c2oc3c(C)ccc(C(=O)N[C@@H]4C(=O)N[C@H](C(C)C)C(=O)N5CCC[C@H]5C(=O)N(C)CC(=O)N(C)[C@@H](C(C)C)C(=O)O[C@@H]4C)c3nc-2c(C(=O)N[C@@H]2C(=O)N[C@H](C(C)C)C(=O)N3CCC[C@H]3C(=O)N(C)CC(=O)N(C)[C@@H](C(C)C)C(=O)O[C@@H]2C)c(N)c1=O [Dactinomycin (=Actinomycin D), Dactinomycin] (I: T[dV]P[Sar][NMeV] / II: T[dV]P[Sar][NMeV]; ester I:1-I:C, II:1-II:C; linker I:N-II:N via Actinocin(9to1)) | 24.4 | 66.5 | 60.4 | 42.9 | 
16 | O=C1c2c(O)ccc(O)c2C(=O)c2c(NCCNCCO)ccc(NCCNCCO)c21 [Mitoxantrone HCl] | 72.6 | 73.7 | 68.8 | 71.1 | 
17 | CSc1ccc2c(c1)N(CCC1CCCCN1C)c1ccccc1S2 (centres unmarked) [Thioridazine HCl] | 70.3 | 23.1 | 27 | -40.9 | 
18 | CC(C)(C)NC[C@H](O)COc1cccc2c1CCCC2=O [Levobunolol HCl] | -32.1 | -8 | 1.8 | 49.6 | 
19 | NS(=O)(=O)c1cc(C(=O)O)c(NCc2ccco2)cc1Cl [Furosemide] | -38.4 | -31.3 | -39 | 50.3 | 
20 | CCN(CC)C(=S)SSC(=S)N(CC)CC [Disulfiram] | 92.4 | 91.5 | 64 | -45.4 | 
21 | CC(CCc1ccc(O)cc1)NCCc1ccc(O)c(O)c1 (centres unmarked) [Dobutamine HCl] | 25.3 | 79.6 | -10.5 | -5 | 
22 | Cc1ncc([N+](=O)[O-])n1CCO [Metronidazole] | -17.3 | -23.9 | -25.2 | 31 | 
23 | O=c1[nH]c2ccccc2n1C1CCN(CCCC(c2ccc(F)cc2)c2ccc(F)cc2)CC1 [Pimozide] | 69 | 58.8 | 42.3 | 39.5 | 
24 | O=C(NCC1CCCCN1)c1cc(OCC(F)(F)F)ccc1OCC(F)(F)F (centres unmarked) [Flecainide Acetate] | -1 | -18.3 | 13 | 50.2 | 
25 | Oc1c(Cl)cc(Cl)c(Cl)c1Cc1c(O)c(Cl)cc(Cl)c1Cl [Hexachlorophene] |  |  |  |  | inhibition at 10 µM (PBMCs from CML patients): 26.3%; inhibition at 10 µM (PBMCs from ALL patients): 23%; inhibition at 10 µM (PBMCs from AML patients): 35%; inhibition at 10 µM (PBMCs from CLL patients): -13.5%
26 | N[C@@H](Cc1ccc(N(CCCl)CCCl)cc1)C(=O)O [Melphalan] | 32.5 | 92.9 | 42.1 | 69.6 | 
27 | CCN(CC)CCNC(=O)c1c(C)[nH]c(/C=C2\C(=O)Nc3ccc(F)cc32)c1C [Sunitinib Malate] | 65.2 | 54.2 | 56.5 | 40.5 | 
28 | CO[C@H]1/C=C/O[C@@]2(C)Oc3c(C)c(O)c4c(O)c(c(/C=N/N5CCN(C6CCCC6)CC5)c(O)c4c3C2=O)NC(=O)/C(C)=C\C=C\[C@H](C)[C@H](O)[C@@H](C)[C@@H](O)[C@@H](C)[C@H](OC(C)=O)[C@@H]1C [Rifapentine] | 76.5 |  | -3.2 | 12.3 | 
